What was measured:
Human β2 adrenoceptor = target: T1, Human β2 adrenoceptor (Homo sapiens, UniProt P07550); experiment: β2 adrenoceptor radioligand binding assay
T1 construct: purchased Perkin Elmer
Protocol: β2 Adrenoceptor Radioligand Binding Assay
Human β2 adrenoceptor membranes (7.5 ug/well) from Perkin Elmer were incubated with 0.3 nM 125-I Cyanopindolol with or without test compounds, or a saturating concentration of s-propranolol (2 μM) for the determination of non-specific binding. The assay was carried out in 96-well polypropylene plates in a volume of 200 ul. The assay buffer used was 25 mM HEPES, 0.5% BSA (w/v), 1 mM EDTA, 0.02% ascorbic acid (v/v), (pH 7.4). The final assay concentration of DMSO was 0.5% (v/v). The plates were sealed and incubated for 1 h at room temperature on an orbital shaker (slow speed). Membranes were harvested onto 96-well unifilter GF/C filter plates pre-treated with 0.5% polyethyleneimine (v/v), using a filter manifold, washed six times with 200 ul of wash buffer containing 10 mM HEPES and 500 mM NaCl. The plates were dried before addition of 50 μl of microscint-0, sealed then read in a Trilux Microbeta scintillation counter. IC50 values are determined from competition curves using a non-linear curve fitting program. Ki values were calculated from IC50 values by the Cheng and Prusoff equation.

Human M3 receptor = target: T2, Human M3 receptor (Homo sapiens, UniProt P20309); experiment: biochemical; assay type: binding; settings: read-out: M3 Range
T2 construct: purchased Perkin Elmer
T2 sequence (P20309 whole entry): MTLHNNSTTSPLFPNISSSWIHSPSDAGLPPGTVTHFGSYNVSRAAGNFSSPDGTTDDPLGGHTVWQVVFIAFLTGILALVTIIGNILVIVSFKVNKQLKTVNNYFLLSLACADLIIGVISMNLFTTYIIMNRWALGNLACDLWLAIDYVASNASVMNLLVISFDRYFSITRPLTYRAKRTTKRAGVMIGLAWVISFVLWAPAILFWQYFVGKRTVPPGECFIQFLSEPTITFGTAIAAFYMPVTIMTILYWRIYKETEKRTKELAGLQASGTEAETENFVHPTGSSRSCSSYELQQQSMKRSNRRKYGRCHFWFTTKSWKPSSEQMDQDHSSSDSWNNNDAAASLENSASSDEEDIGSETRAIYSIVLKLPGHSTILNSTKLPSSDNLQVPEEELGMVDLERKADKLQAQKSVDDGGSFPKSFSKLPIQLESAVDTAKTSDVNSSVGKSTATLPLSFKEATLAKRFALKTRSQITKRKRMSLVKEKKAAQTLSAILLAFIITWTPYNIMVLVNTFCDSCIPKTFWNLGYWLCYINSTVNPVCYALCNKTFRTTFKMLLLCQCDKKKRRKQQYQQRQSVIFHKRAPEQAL

T1 sequence (P07550 whole entry): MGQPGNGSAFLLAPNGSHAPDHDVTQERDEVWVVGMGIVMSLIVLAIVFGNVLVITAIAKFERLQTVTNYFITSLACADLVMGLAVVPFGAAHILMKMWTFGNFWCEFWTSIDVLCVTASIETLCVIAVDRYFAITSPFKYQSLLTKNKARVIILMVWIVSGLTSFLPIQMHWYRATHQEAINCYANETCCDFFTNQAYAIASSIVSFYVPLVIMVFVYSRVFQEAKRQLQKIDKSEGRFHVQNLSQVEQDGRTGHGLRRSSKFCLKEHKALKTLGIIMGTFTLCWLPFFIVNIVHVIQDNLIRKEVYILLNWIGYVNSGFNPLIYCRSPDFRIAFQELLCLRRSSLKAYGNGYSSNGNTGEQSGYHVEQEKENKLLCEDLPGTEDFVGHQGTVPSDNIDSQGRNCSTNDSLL

| SMILES | IC50 (Human β2 adrenoceptor) [nM] | IC50 (Human M3 receptor) [nM] |
| --- | --- | --- |
| O=C(NCc1ccc(-c2cccc([C@](O)(C(=O)OCC3CCN(Cc4ccccc4)CC3)c3ccccc3)c2)s1)c1cccc(CNC[C@H](O)c2ccc(O)c3[nH]c(=O)ccc23)c1 [Compound 1N, (1-Benzylpiperidin-4-yl)methyl (S)-2-hydroxy-2-(3-(5-((3-((((R)-2-hydroxy-2-(8-hydroxy-2-oxo-1,2-dihydroquinolin-5-yl)ethyl)amino)methyl)-benzamido)methyl)thiophen-2-yl)phenyl)-2-phenylacetate] | 0.3 to 3 | 0.3 to 3 |
| Cc1cc(C(=O)NCc2ccc(-c3cccc([C@](O)(C(=O)OCC4CCN(Cc5ccccc5)CC4)c4ccccc4)c3)s2)c(F)cc1CNC[C@H](O)c1ccc(O)c2[nH]c(=O)ccc12 [Compound 1O, (1-Benzylpiperidin-4-yl)methyl (S)-2-(3-(5-((2-fluoro-4-((((R)-2-hydroxy-2-(8-hydroxy-2-oxo-1,2-dihydroquinolin-5-yl)ethyl)amino)methyl)-5-methylbenzamido)methyl)thiophen-2-yl)phenyl)-2-hydroxy-2-phenylacetate] | < 0.3 | > 3 |
| O=C(Cc1ccc(CNC[C@H](O)c2ccc(O)c3[nH]c(=O)ccc23)cc1)NCc1ccc(-c2cccc([C@](O)(C(=O)OCC3CCN(Cc4ccccc4)CC3)c3ccccc3)c2)s1 [Compound 1P, (1-Benzylpiperidin-4-yl)methyl (S)-2-hydroxy-2-(3-(5-((2-(4-((((R)-2-hydroxy-2-(8-hydroxy-2-oxo-1,2-dihydroquinolin-5-yl)ethyl)amino)methyl)-phenyl)acetamido)methyl)thiophen-2-yl)phenyl)-2-phenylacetate] | 0.3 to 3 | 0.3 to 3 |
| O=C(NCc1ccc(-c2cccc([C@](O)(C(=O)OCC3CCN(Cc4ccccc4)CC3)c3ccccc3)c2)s1)c1ccc(CNC[C@H](O)c2ccc(O)c3[nH]c(=O)ccc23)cn1 [Compound 1Q, (1-Benzylpiperidin-4-yl)methyl (S)-2-hydroxy-2-(3-(5-((5-((((R)-2-hydroxy-2-(8-hydroxy-2-oxo-1,2-dihydroquinolin-5-yl)ethyl)amino)methyl)-picolinamido)methyl)thiophen-2-yl)phenyl)-2-phenylacetate] | < 0.3 | 0.3 to 3 |
| O=C(NCc1ccc(-c2cccc([C@](O)(C(=O)OCC3CCN(Cc4ccccc4)CC3)c3ccccc3)c2)s1)c1ccc(CNC[C@H](O)c2ccc(O)c3[nH]c(=O)ccc23)c(Cl)c1 [Compound 1R, (1-Benzylpiperidin-4-yl)methyl (S)-2-(3-(5-((3-chloro-4-((((R)-2-hydroxy-2-(8-hydroxy-2-oxo-1,2-dihydroquinolin-5-yl)ethyl)amino)methyl)-benzamido)methyl)thiophen-2-yl)phenyl)-2-hydroxy-2-phenylacetate] | < 0.3 | > 3 |
| Cc1cc(C(=O)NCc2ccc(-c3cccc([C@](O)(C(=O)OCC4CCN(Cc5ccccc5)CC4)c4ccccc4)c3)s2)ccc1CNC[C@H](O)c1ccc(O)c2[nH]c(=O)ccc12 [Compound 1S, (1-Benzylpiperidin-4-yl)methyl (S)-2-hydroxy-2-(3-(5-((4-((((R)-2-hydroxy-2-(8-hydroxy-2-oxo-1,2-dihydroquinolin-5-yl)ethyl)amino)methyl)-3-methylbenzamido)methyl)thiophen-2-yl)phenyl)-2-phenylacetate] | < 0.3 | 0.3 to 3 |
| O=C(NCc1ccc(-c2cccc([C@](O)(C(=O)OCC3CCN(Cc4ccccc4)CC3)c3ccccc3)c2)s1)c1ccc(CNC[C@H](O)c2ccc(O)c3[nH]c(=O)ccc23)s1 [Compound 1T, (1-Benzylpiperidin-4-yl)methyl (S)-2-hydroxy-2-(3-(5-((5-((((R)-2-hydroxy-2-(8-hydroxy-2-oxo-1,2-dihydroquinolin-5-yl)ethyl)amino)methyl)thiophene-2-carboxamido)methyl)thiophen-2-yl)phenyl)-2-phenylacetate] | 0.3 to 3 | 0.3 to 3 |
| O=C(NCc1ccc(-c2cccc([C@](O)(C(=O)OCC3CCN(Cc4ccccc4)CC3)c3ccccc3)c2)s1)c1cc(F)c(CNC[C@H](O)c2ccc(O)c3[nH]c(=O)ccc23)cc1F [Compound 1U, (1-Benzylpiperidin-4-yl)methyl (S)-2-(3-(5-((2,5-difluoro-4-((((R)-2-hydroxy-2-(8-hydroxy-2-oxo-1,2-dihydroquinolin-5-yl)ethyl)amino)methyl)-benzamido)methyl)thiophen-2-yl)phenyl)-2-hydroxy-2-phenylacetate] | < 0.3 | 0.3 to 3 |
| O=C(NCc1ccc(-c2cccc([C@](O)(C(=O)OCC3CCN(Cc4ccccc4)CC3)c3ccccc3)c2)s1)c1ccc(CNC[C@H](O)c2ccc(O)c3[nH]c(=O)ccc23)c(F)c1F [Compound 1V, (1-Benzylpiperidin-4-yl)methyl (S)-2-(3-(5-((2,3-difluoro-4-((((R)-2-hydroxy-2-(8-hydroxy-2-oxo-1,2-dihydroquinolin-5-yl)ethyl)amino)methyl)-benzamido)methyl)thiophen-2-yl)phenyl)-2-hydroxy-2-phenylacetate] | < 0.3 | 0.3 to 3 |
| O=C(NCc1ccc(-c2cccc([C@](O)(C(=O)OCC3CCN(Cc4ccccc4)CC3)c3ccccc3)c2)s1)c1c(F)cc(CNC[C@H](O)c2ccc(O)c3[nH]c(=O)ccc23)cc1Cl [Compound 1W, (1-Benzylpiperidin-4-yl)methyl (S)-2-(3-(5-((2-chloro-6-fluoro-4-((((R)-2-hydroxy-2-(8-hydroxy-2-oxo-1,2-dihydroquinolin-5-yl)ethyl)amino)methyl)-benzamido)methyl)thiophen-2-yl)phenyl)-2-hydroxy-2-phenylacetate] | < 0.3 | 0.3 to 3 |
| COc1cc(CNC[C@H](O)c2ccc(O)c3[nH]c(=O)ccc23)cc(F)c1C(=O)NCc1ccc(-c2cccc([C@](O)(C(=O)OCC3CCN(Cc4ccccc4)CC3)c3ccccc3)c2)s1 [Compound 1X, (1-Benzylpiperidin-4-yl)methyl (S)-2-(3-(5-((2-fluoro-4-((((R)-2-hydroxy-2-(8-hydroxy-2-oxo-1,2-dihydroquinolin-5-yl)ethyl)amino)methyl)-6-methoxybenzamido)methyl)thiophen-2-yl)phenyl)-2-hydroxy-2-phenylacetate] | < 0.3 | 0.3 to 3 |
| COc1ccc(CN2CCC(COC(=O)[C@](O)(c3ccccc3)c3cccc(-c4ccc(CNC(=O)c5ccc(CNC[C@H](O)c6ccc(O)c7[nH]c(=O)ccc67)cc5)s4)c3)CC2)cc1 [Compound 2A, (1-(4-Methoxybenzyl)piperidin-4-yl)methyl (S)-2-hydroxy-2-(3-(5-((4-((((R)-2-hydroxy-2-(8-hydroxy-2-oxo-1,2-dihydroquinolin-5-yl)ethyl)amino)-methyl)benzamido)methyl)thiophen-2-yl)phenyl)-2-phenylacetate] | < 0.3 | 0.3 to 3 |
| CN1CCC(COC(=O)[C@](O)(c2ccccc2)c2cccc(-c3ccc(CNC(=O)c4ccc(CNC[C@H](O)c5ccc(O)c6[nH]c(=O)ccc56)cc4)s3)c2)CC1 [Compound 2B, (1-Methylpiperidin-4-yl)methyl (S)-2-hydroxy-2-(3-(5-((4-((((R)-2-hydroxy-2-(8-hydroxy-2-oxo-1,2-dihydroquinolin-5-yl)ethyl)amino)methyl)-benzamido)methyl)thiophen-2-yl)phenyl)-2-phenylacetate] | < 0.3 | 0.3 to 3 |
| O=C(NCc1ccc(-c2cccc([C@](O)(C(=O)OC[C@@H]3[C@H]4CN(Cc5ccccc5)C[C@@H]34)c3ccccc3)c2)s1)c1ccc(CNC[C@H](O)c2ccc(O)c3[nH]c(=O)ccc23)cc1 [Compound 2D, ((1R,5S,6r)-3-Benzyl-3-azabicyclo[3.1.0]hexan-6-yl)methyl (S)-2-hydroxy-2-(3-(5-((4-((((R)-2-hydroxy-2-(8-hydroxy-2-oxo-1,2-dihydroquinolin-5-yl)ethyl)amino)methyl)benzamido)methyl)thiophen-2-yl)phenyl)-2-phenylacetate] | 0.3 to 3 | 0.3 to 3 |
| COc1cccc(CN2CCC(COC(=O)[C@](O)(c3ccccc3)c3cccc(-c4ccc(CNC(=O)c5ccc(CNC[C@H](O)c6ccc(O)c7[nH]c(=O)ccc67)cc5)s4)c3)CC2)c1 [Compound 2E, (1-(3-Methoxybenzyl)piperidin-4-yl)methyl (S)-2-hydroxy-2-(3-(5-((4-((((R)-2-hydroxy-2-(8-hydroxy-2-oxo-1,2-dihydroquinolin-5-yl)ethyl)amino)-methyl)benzamido)methyl)thiophen-2-yl)phenyl)-2-phenylacetate] | 0.3 to 3 | > 3 |
| C[C@@H](OC(=O)[C@](O)(c1ccccc1)c1cccc(-c2ccc(CNC(=O)c3ccc(CNC[C@H](O)c4ccc(O)c5[nH]c(=O)ccc45)cc3)s2)c1)C1CCN(Cc2ccccc2)CC1 [Compound 2G, (R)-1-(1-Benzylpiperidin-4-yl)ethyl (S)-2-hydroxy-2-(3-(5-((4-((((R)-2-hydroxy-2-(8-hydroxy-2-oxo-1,2-dihydroquinolin-5-yl)ethyl)amino)-methyl)benzamido)methyl)thiophen-2-yl)phenyl)-2-phenylacetate] | < 0.3 | 0.3 to 3 |

From patent US10196386B2, “Compounds having muscarinic receptor antagonist and beta2 adrenergic receptor agonist activity” (priority 2016, dated 2019)
